Experimental findings from patent publication US20060058320A1, “[1,2,4] Triazolo[1,5-c]pyrimidine derivatives” (KYOWA HAKKO KOGYO CO., LTD., priority 2002, published 2006) are described below.

Each structure is given as a SMILES string. Where two headings read alike, the source gives them in different places.

For assay [1], the system named is CGS 21680-induced catalepsy. Kind of assay: Activity on CGS 21680-induced catalepsy. The assay is classed as in vivo, mice. Conditions: for inhibition in vivo at 10 mg/kg: Mus musculus, po, read-out: Remission ratio (%); for Total score: total catalepsy score of 10 mice (maximum 50 points; 40 points or less = positive), one hour after administration. The gist of the method:
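Male ddY mice, 5 weeks old, ten per group, were dosed orally with compound at 10 mg/kg in 0.3% Tween 80 water, 30 min before CGS 21680 (10 μg/20 μL) was injected into the cerebral ventricle. Catalepsy was scored 1 h after compound dosing by placing forelimbs or hindlimbs on a 4.5 cm stand.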

In another assay the test system is male ddY mice. Briefly: Forced swimming method (measurement of immobility time). Particulars: orally administered, 10 mg/kg, one hour before the test; versus solvent group (Steel-test). In kind it is in vivo. As to the method: Ten male ddY mice (21 to 26 g in body weight, Japan SLC) per group were used as test animals. During the preliminary feeding period, the animals were bred to be allowed to freely have feed (CRF-1; Oriental Yeast Co., Ltd, Tokyo) and water (tap water) in an animal room at a room temperature for 23±1° C. and a humidity of 55±5%.
Animals showing abnormal reactions in terms of spontaneous activity, myotonia, eyesight and the like were previously excluded. Each test compound was suspended in a 0.3% Tween 80 solution and orally administered one hour before the test. In the negative control group, 10 mL/kg of a 0.3% Tween 80 solution alone was orally administered. The immobility time was measured according to the Porsolt method [Arch. Int. Pharmacodyn., vol. 229, pp. 327-336 (1977)]. Namely, a cylindrical transparent acrylic water tank (10 cm in diameter and 25 cm in height) was filled with water at a temperature between 23±1° C. to a height of 9 cm, and the mice were forced to swim for 6 minutes. When the mice are put into water, they immediately start to swim trying to escape from the tank, but the motion gradually decreases 1 to 2 minutes thereafter. […] In order to reduce the effects of daily rhythm, the test was carried out using 5 of the 10 animals per group in the morning, and the remaining 5 animals in the afternoon. The immobility time was measured by observing 2 animals at the same time without telling the observers distinctions about the control group administered with the solvent alone and doses of the test compounds. Statistical analysis of the results was carried out by a multiple comparison Steel-test between the solvent-administered group and the test compound-administered group.

Another assay relates to male SD rats. Kind of assay: Learned helplessness (LH) model. In kind it is in vivo. Conditions: for escape response: IES-loaded rats, 2 mg/kg orally 1 hour before FR1; for intertrial responses (index of psychomotor stimulant action): versus electric shock loaded control group, 2 mg/kg orally. As to the method:
As test animals, 10 to 15 male SD rats (220 to 320 g in body weight, 7 week age, Charles River Japan, Inc., Atsugi) per group were used. During the preliminary feeding period, the animals were bred to be allowed to freely have feed (CRF-1; Oriental Yeast Co., Ltd, Tokyo) and water (tap water) in an animal room at a room temperature of 22 to 24° C. and a humidity of 50 to 60%. Each test compound was orally administered in a dose of 2 mg/kg 1 hour before RF1 (refer to the contents described below) on the second day of the test.
A shuttle box apparatus (TK-401S; produced by UNICOM, Chiba) was used as a learning experimental apparatus. On the first day, the shuttle box was divided into two rooms by setting a partition at its center, and one rat was put in each of the rooms. […] Although each rat was put in the shuttle box for 50 minutes, the charging time of inescapable shock (IES) was set to 25 minutes by computer control using a random duration time (10 to 90 seconds) and random on-off and off-on (10 to 90 seconds).
On the second day, a shuttle box test was carried out by the method of Maier [J. Comp. Physiol. Psychol., vol. 85, pp. 581-592 (1973)] and the method of Geoffroy and Christensen [Drug Dev. Res., vol. 29, pp. 48-55 (1993)] which were slightly modified. The partition at the center of the shuttle box was removed, and the box was divided into two rooms by a hurdle of 2 cm in height instead of the partition. In the shuttle box test, FRI (an electric shock of 0.6 mA was applied to the rat for 5 seconds unless the rat moved to the other room within 5 seconds after the start of buzzer sounds, and when the rat moved to the other room within 5 seconds after the start of buzzer sounds, the floor shock could be avoided, this operation being carried as one trial and repeated 15 times with an interval of 10 seconds between trials.) was carried out, continuously followed by FR2 (an electric shock of 0.6 mA was applied to the rat for 10 seconds, and then an electric shock of 0.6 mA was applied at intervals of 0.5 second for 10 seconds, this operation being carried out as one trial and repeated 15 times with an interval of 15 seconds between trials). Escape reaction was determined by the escape response calculated by the equation below on the assumption that cases showing two escape latency times of less than 10 seconds in FR2 were regarded as successful escape. Escape response (%)=(Number of trials of successful escape/15)×100
Furthermore, migration (intertrial response %) in the box other than the escape reaction observed during a period between trials (resting time) was used as an index of psychomotor stimulant action, the intertrial response being calculated by the following equation. […]

Assay [2] relates to common marmoset treated with 1-methyl-4-phenyl-1,2,3,6-tetrahydropyridine (MPTP). Kind of assay: Parkinson's disease model, MPTP-treated common marmoset. In kind it is in vivo. Particulars: symptom score and spontaneous locomotor activity versus solvent-administered group. As to the method:
Parkinson's disease is a disease based on the degeneration and cell death of the nigrostriatal dopaminergic neurons. […] These MPTP-treated primates are known as a model of Parkinson's disease [Proceedings of the National Academy of Science USA, vol. 80, p. 4546 (1983)]. […] 57, p. 37 (1985)].
The test was carried out using 4 female and male common marmosets of 2 to 3 year age (300 to 375 g in body weight, Japan CLEA) per group. MPTP (produced by RBI Co.) was dissolved in physiological saline for injection (produced by Otsuka Pharmaceutical Co., Ltd.), and hypodermically administered to the common marmosets once a day for 5 days in a dose of 2.0 mg/kg. Six weeks or more after the administration, animals showing chronic symptoms of Parkinson's disease were used in the test. Each test compound was used by suspending it in an aqueous solution containing 0.3% Tween 80 and 10% sucrose. Also, a solution containing no test compound was used as a control. One hour before the administration of the test compound, the animals to be tested were put into an observation cage (provided with a spontaneous locomotor activity measuring apparatus) to adapt them to the environment. The symptoms of Parkinson's disease were observed from a one-way see through window at intervals of 30 minutes for 8 hours to score the motor disability. The spontaneous locomotor activity was measured at intervals of 30 minutes for 12 hours by a computer-controlled automatic measuring apparatus. The symptoms of Parkinson's disease were decided on the basis of the criteria of each observation item shown below, and the total of the points was used as the score of each animal.
The effect was decided by comparing average scores of the symptoms of Parkinson's disease in 4 animals per group between the test compound-administered group and the solvent-administered group (significance test: Sign-Wilcoxon test). The spontaneous locomotor activity was also decided by comparison between the test compound-administered group and the solvent-administered group.

Another assay has as its target T1, adenosine A2A receptor (Rattus norvegicus, UniProt P30543).
T1 construct: from tissue; host or cells: rat corpus striatum membrane preparation
Kind of assay: Adenosine A2A receptor binding test (3H-CGS 21680 binding). Particulars: read-out: A2A Receptor inhibition rate (%) at 10^−7 mol/L.

[3] abbreviates: from total score of test group and control group, 10 mg/kg orally.
The mark [4] stands for this setting: test compound 10^−7 mol/L, 3H-CGS 21680 binding, rat corpus striatum.

T1 sequence (P30543 whole entry): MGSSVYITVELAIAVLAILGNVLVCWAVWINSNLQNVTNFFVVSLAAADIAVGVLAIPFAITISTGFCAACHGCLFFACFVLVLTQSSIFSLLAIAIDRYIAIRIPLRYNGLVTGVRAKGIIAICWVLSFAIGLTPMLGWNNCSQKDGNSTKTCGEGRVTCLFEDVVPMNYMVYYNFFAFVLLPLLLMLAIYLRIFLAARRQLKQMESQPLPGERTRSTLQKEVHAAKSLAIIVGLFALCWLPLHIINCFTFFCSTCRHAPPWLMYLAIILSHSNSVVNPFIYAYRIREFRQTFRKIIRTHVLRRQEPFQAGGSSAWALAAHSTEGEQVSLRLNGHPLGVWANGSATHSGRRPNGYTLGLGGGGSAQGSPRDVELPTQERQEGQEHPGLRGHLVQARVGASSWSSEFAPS

Take `Nc1nc(C(=O)NCc2cccnc2)cc2nc(-c3ccco3)nn12` [Compound 83, 5-Amino-2-(2-furyl) [1,2,4]triazolo[1,5-c]pyrimidine-7-carboxylic acid (3-pyridylmethyl)amide]: the inhibition in vivo at 10 mg/kg in assay [1] (setting [3]) was found to be 96%. For the same compound, the Total score in assay [1] (10 mg/kg orally) is given as 2. Further, in the assay with male ddY mice, the immobility time result was “significant effect of decreasing the immobility time”. In the assay with male SD rats, the escape response result is reported as “significantly recover a reduced escape response” and the “intertrial responses (index of psychomotor stimulant action)” value was “no difference”.
With `CC(C)(O)CCN1CC=C(c2cc3nc(-c4ccco4)nn3c(N)n2)CC1` [Compound 76, 5-Amino-7-[1-(3-methyl-3-hydroxybutyl)-1,2,3,6-tetrahydro-pyridin-4-yl]-2-(2-furyl)[1,2,4]triazolo[1,5-c]pyrimidine], the inhibition in vivo at 10 mg/kg in assay [1] turned out to be 80%. The compound also registered a Total score in assay [1] (10 mg/kg orally) of 5. Further, in assay [2], the “effect in the common marmoset MPTP-treated Parkinson's disease model” value (from here on “effect”) was “effective”. The inhibition at 0.1 µM at adenosine A2A receptor worked out at 72%.
As for `CN(CCc1ccccn1)C(=O)c1cc2nc(-c3ccco3)nn2c(N)n1` [Compound 85, 5-Amino-2-(2-furyl)[1,2,4]triazolo[1,5-c]pyrimidine-7-carboxylic acid {N-[2-(2-pyridyl)ethyl]-N-methyl}amide], the inhibition in vivo at 10 mg/kg in assay [1] (setting [3]) was 94%. The compound further registered a Total score in assay [1] (10 mg/kg orally) of 3. Besides, in assay [2], the “effect” value is “effective”. Further, the inhibition at 0.1 µM on adenosine A2A receptor (setting [4]) amounted to 70%.
In the case of `Nc1nc(C2CCN(CC3CC3)CC2)cc2nc(-c3ccco3)nn12` [Compound 71, 5-Amino-7-[1-(cyclopropylmethyl)piperidin-4-yl]-2-(2-furyl)-[1,2,4]triazolo[1,5-c]pyrimidine], in assay [2], the “effect” value is “effective”. In addition, on adenosine A2A receptor (setting [4]), the inhibition at 0.1 µM was 87%. In addition, the immobility time entry in the assay on male ddY mice is “significant effect of decreasing the immobility time”. Besides, in the assay on male SD rats, the escape response result is “significantly recover a reduced escape response” and the “intertrial responses (index of psychomotor stimulant action)” value was “no difference”.
